US20220162167A1, “SUBSTITUTED BICYCLIC AND TETRACYCLIC QUINONES AND USE THEREOF AS ANTI-CANCER AGENTS” (THE REGENTS OF THE UNIVERSITY OF MICHIGAN, priority 2019, published 2022)

Columns and labels:
Type in all cases: cell-based
CCRF-CEM = experiment: NCI60 growth inhibition, CCRF-CEM; conditions: Leukemia
Experimental: (§1) Representative compounds were tested in 60 cell lines (NCI60) at the National Cancer Institute, Developmental Therapeutics Program.
(§2) Representative compounds were tested in a panel of 60 cancer cells (NCI 60) at the National Cancer Institute. Growth inhibition are shown in table 2, table 3, table 4, table 5, and FIG. 1, FIG. 2, FIG. 3, FIG. 4, FIG. 5.

HL-60(TB) = experiment: NCI60 growth inhibition, HL-60(TB); conditions: Leukemia
Experimental: as §1, §2

K-562 = experiment: NCI60 growth inhibition, K-562; conditions: Leukemia
Experimental: as §1, §2

MOLT-4 = experiment: NCI60 growth inhibition, MOLT-4; conditions: Leukemia
Experimental: as §1, §2

RPMI-8226 = experiment: NCI60 growth inhibition, RPMI-8226; conditions: Leukemia
Experimental: as §1, §2

SR = experiment: NCI60 growth inhibition, SR; conditions: Leukemia
Experimental: as §1, §2

A549/ATCC = experiment: NCI60 growth inhibition, A549/ATCC; conditions: Non-Small Cell Lung Cancer
Experimental: as §1, §2

EKVX = experiment: NCI60 growth inhibition, EKVX; conditions: Non-Small Cell Lung Cancer
Experimental: as §1, §2

HOP-62 = experiment: NCI60 growth inhibition, HOP-62; conditions: Non-Small Cell Lung Cancer; also: test concentration or dose not given here
Experimental: as §1, §2

HOP-92 = experiment: NCI60 growth inhibition, HOP-92; conditions: Non-Small Cell Lung Cancer
Experimental: as §1, §2

NCI-H226 = experiment: NCI60 growth inhibition, NCI-H226; conditions: Non-Small Cell Lung Cancer; also: test concentration or dose not given here
Experimental: as §1, §2

NCI-H23 = experiment: NCI60 growth inhibition, NCI-H23; conditions: Non-Small Cell Lung Cancer
Experimental: as §1, §2

NCI-H322M = experiment: NCI60 growth inhibition, NCI-H322M; conditions: Non-Small Cell Lung Cancer
Experimental: as §1, §2

NCI-H460 = experiment: NCI60 growth inhibition, NCI-H460; conditions: Non-Small Cell Lung Cancer
Experimental: as §1, §2

NCI-H522 = experiment: NCI60 growth inhibition, NCI-H522; conditions: Non-Small Cell Lung Cancer
Experimental: as §1, §2

COLO 205 = experiment: NCI60 growth inhibition, COLO 205; conditions: Colon Cancer
Experimental: as §1, §2

HCC-2998 = experiment: NCI60 growth inhibition, HCC-2998; conditions: Colon Cancer
Experimental: as §1, §2

HCT-116 = experiment: NCI60 growth inhibition, HCT-116; conditions: Colon Cancer
Experimental: as §1, §2

HCT-15 = experiment: NCI60 growth inhibition, HCT-15; conditions: Colon Cancer; also: test concentration or dose not given here
Experimental: as §1, §2

HT29 = experiment: NCI60 growth inhibition, HT29; conditions: Colon Cancer
Experimental: as §1, §2

KM12 = experiment: NCI60 growth inhibition, KM12; conditions: Colon Cancer; also: test concentration or dose not given here
Experimental: as §1, §2

SW-620 = experiment: NCI60 growth inhibition, SW-620; conditions: Colon Cancer; also: test concentration or dose not given here
Experimental: as §1, §2

SF-268 = experiment: NCI60 growth inhibition, SF-268; conditions: CNS Cancer; also: test concentration or dose not given here
Experimental: as §1, §2

SF-295 = experiment: NCI60 growth inhibition, SF-295; conditions: CNS Cancer; also: test concentration or dose not given here
Experimental: as §1, §2

SF-539 = experiment: NCI60 growth inhibition, SF-539; conditions: CNS Cancer
Experimental: as §1, §2

SNB-19 = experiment: NCI60 growth inhibition, SNB-19; conditions: CNS Cancer; also: test concentration or dose not given here
Experimental: as §1, §2

SNB-75 = experiment: NCI60 growth inhibition, SNB-75; conditions: CNS Cancer; also: test concentration or dose not given here
Experimental: as §1, §2

U251 = experiment: NCI60 growth inhibition, U251; conditions: CNS Cancer
Experimental: as §1, §2

LOX IMVI = experiment: NCI60 growth inhibition, LOX IMVI; conditions: Melanoma
Experimental: as §1, §2

MALME-3M = experiment: NCI60 growth inhibition, MALME-3M; conditions: Melanoma
Experimental: as §1, §2

M14 = experiment: NCI60 growth inhibition, M14; conditions: Melanoma
Experimental: as §1, §2

MDA-MB-435 = experiment: NCI60 growth inhibition, MDA-MB-435; conditions: Melanoma
Experimental: as §1, §2

SK-MEL-2 = experiment: NCI60 growth inhibition, SK-MEL-2; conditions: Melanoma; also: test concentration or dose not given here
Experimental: as §1, §2

SK-MEL-28 = experiment: NCI60 growth inhibition, SK-MEL-28; conditions: Melanoma
Experimental: as §1, §2

SK-MEL-5 = experiment: NCI60 growth inhibition, SK-MEL-5; conditions: Melanoma
Experimental: as §1, §2

UACC-257 = experiment: NCI60 growth inhibition, UACC-257; conditions: Melanoma; also: test concentration or dose not given here
Experimental: as §1, §2

UACC-62 = experiment: NCI60 growth inhibition, UACC-62; conditions: Melanoma; also: test concentration or dose not given here
Experimental: as §1, §2

IGROV1 = experiment: NCI60 growth inhibition, IGROV1; conditions: Ovarian Cancer
Experimental: as §1, §2

OVCAR-3 = experiment: NCI60 growth inhibition, OVCAR-3; conditions: Ovarian Cancer
Experimental: as §1, §2

OVCAR-4 = experiment: NCI60 growth inhibition, OVCAR-4; conditions: Ovarian Cancer; also: test concentration or dose not given here
Experimental: as §1, §2

OVCAR-5 = experiment: NCI60 growth inhibition, OVCAR-5; conditions: Ovarian Cancer
Experimental: as §1, §2

NCI/ADR-RES = experiment: NCI60 growth inhibition, NCI/ADR-RES; conditions: Ovarian Cancer
Experimental: as §1, §2

SK-OV-3 = experiment: NCI60 growth inhibition, SK-OV-3; conditions: Ovarian Cancer
Experimental: as §1, §2

786-0 = experiment: NCI60 growth inhibition, 786-0; conditions: Renal Cancer
Experimental: as §1, §2

A498 = experiment: NCI60 growth inhibition, A498; conditions: Renal Cancer; also: test concentration or dose not given here
Experimental: as §1, §2

ACHN = experiment: NCI60 growth inhibition, ACHN; conditions: Renal Cancer
Experimental: as §1, §2

CAKI-1 = experiment: NCI60 growth inhibition, CAKI-1; conditions: Renal Cancer; also: test concentration or dose not given here
Experimental: as §1, §2

SN12C = experiment: NCI60 growth inhibition, SN12C; conditions: Renal Cancer
Experimental: as §1, §2

TK-10 = experiment: NCI60 growth inhibition, TK-10; conditions: Renal Cancer
Experimental: as §1, §2

UO-31 = experiment: NCI60 growth inhibition, UO-31; conditions: Renal Cancer
Experimental: as §1, §2

PC-3 = experiment: NCI60 growth inhibition, PC-3; conditions: Prostate Cancer
Experimental: as §1, §2

DU-145 = experiment: NCI60 growth inhibition, DU-145; conditions: Prostate Cancer
Experimental: as §1, §2

MCF7 = experiment: NCI60 growth inhibition, MCF7; conditions: Breast Cancer
Experimental: as §1, §2

MDA-MB-231/ATCC = experiment: NCI60 growth inhibition, MDA-MB-231/ATCC; conditions: Breast Cancer
Experimental: as §1, §2

HS 578T = experiment: NCI60 growth inhibition, HS 578T; conditions: Breast Cancer
Experimental: as §1, §2

BT-549 = experiment: NCI60 growth inhibition, BT-549; conditions: Breast Cancer
Experimental: as §1, §2

T-47D = experiment: NCI60 growth inhibition, T-47D; conditions: Breast Cancer
Experimental: as §1, §2

MDA-MB-468 = experiment: NCI60 growth inhibition, MDA-MB-468; conditions: Breast Cancer; also: test concentration or dose not given here
Experimental: as §1, §2

For `CN1CCN(c2cc(F)c(NC3=C(Cl)C(=O)c4ncccc4C3=O)c(F)c2)CC1` [Compound 1, 7-chloro-6-((2,6-difluoro-4-(4-methylpiperazin-1-yl)phenyl)amino)quinoline-5,8-dione], the “Growth inhibition (% control) GIPRCNT” value (CCRF-CEM) was −18.2389 % control, the “Growth inhibition (% control) GIPRCNT” value (HL-60(TB)) was −26.4294 % control and the “Growth inhibition (% control) GIPRCNT” value (K-562) was −0.8345 % control. For the same molecule, the “Growth inhibition (% control) GIPRCNT” value (MOLT-4) was −22.6883 % control, the “Growth inhibition (% control) GIPRCNT” value (RPMI-8226) was −20.7257 % control and the “Growth inhibition (% control) GIPRCNT” value (SR) was −0.8134 % control. For the same molecule, the “Growth inhibition (% control) GIPRCNT” value (A549/ATCC) was 74.56 % control, the “Growth inhibition (% control) GIPRCNT” value (EKVX) was −82.6636 % control and the “Growth inhibition (% control) GIPRCNT” value (HOP-62) was 83.28 % control. The “Growth inhibition (% control) GIPRCNT” value (HOP-92) was −79.9407 % control, the “Growth inhibition (% control) GIPRCNT” value (NCI-H226) was 85.32 % control and the “Growth inhibition (% control) GIPRCNT” value (NCI-H23) was −61.2055 % control. For the same molecule, the “Growth inhibition (% control) GIPRCNT” value (NCI-H322M) was 101.8249 % control, the “Growth inhibition (% control) GIPRCNT” value (NCI-H460) was 9.912 % control and the “Growth inhibition (% control) GIPRCNT” value (NCI-H522) was −59.746 % control. The “Growth inhibition (% control) GIPRCNT” value (COLO 205) was 33.98 % control, the “Growth inhibition (% control) GIPRCNT” value (HCC-2998) was 61.85 % control and the “Growth inhibition (% control) GIPRCNT” value (HCT-116) was −69.7462 % control. The “Growth inhibition (% control) GIPRCNT” value (HCT-15) was −8.531 % control, the “Growth inhibition (% control) GIPRCNT” value (HT29) was 11.1525 % control and the “Growth inhibition (% control) GIPRCNT” value (KM12) was 82.37 % control. For the same molecule, the “Growth inhibition (% control) GIPRCNT” value (SW-620) was −76.6429 % control, the “Growth inhibition (% control) GIPRCNT” value (SF-268) was 48.73 % control and the “Growth inhibition (% control) GIPRCNT” value (SF-295) was 78.81 % control. The “Growth inhibition (% control) GIPRCNT” value (SF-539) was −25.0889 % control, the “Growth inhibition (% control) GIPRCNT” value (SNB-19) was 96.33 % control and the “Growth inhibition (% control) GIPRCNT” value (SNB-75) was 38.01 % control. The “Growth inhibition (% control) GIPRCNT” value (U251) was −9.877 % control, the “Growth inhibition (% control) GIPRCNT” value (LOX IMVI) was −70.2674 % control and the “Growth inhibition (% control) GIPRCNT” value (MALME-3M) was −96.0656 % control. For the same molecule, the “Growth inhibition (% control) GIPRCNT” value (M14) was −40.5376 % control, the “Growth inhibition (% control) GIPRCNT” value (MDA-MB-435) was −75.7981 % control and the “Growth inhibition (% control) GIPRCNT” value (SK-MEL-2) was −49.6035 % control. The “Growth inhibition (% control) GIPRCNT” value (SK-MEL-28) was −55.0718 % control, the “Growth inhibition (% control) GIPRCNT” value (SK-MEL-5) was −91.7268 % control and the “Growth inhibition (% control) GIPRCNT” value (UACC-257) was −62.2412 % control. For the same molecule, the “Growth inhibition (% control) GIPRCNT” value (UACC-62) was −45.6278 % control, the “Growth inhibition (% control) GIPRCNT” value (IGROV1) was −90.4429 % control and the “Growth inhibition (% control) GIPRCNT” value (OVCAR-3) was −98.2241 % control. The “Growth inhibition (% control) GIPRCNT” value (OVCAR-4) was −99.2407 % control, the “Growth inhibition (% control) GIPRCNT” value (OVCAR-5) was −59.8079 % control and the “Growth inhibition (% control) GIPRCNT” value (NCI/ADR-RES) was 37.87 % control. For the same molecule, the “Growth inhibition (% control) GIPRCNT” value (SK-OV-3) was 82.67 % control, the “Growth inhibition (% control) GIPRCNT” value (786-0) was −72.0362 % control and the “Growth inhibition (% control) GIPRCNT” value (A498) was 80.11 % control. For the same molecule, the “Growth inhibition (% control) GIPRCNT” value (ACHN) was −93.058 % control, the “Growth inhibition (% control) GIPRCNT” value (CAKI-1) was −85.6094 % control and the “Growth inhibition (% control) GIPRCNT” value (SN12C) was −97.4828 % control. The “Growth inhibition (% control) GIPRCNT” value (TK-10) was 8.462 % control, the “Growth inhibition (% control) GIPRCNT” value (UO-31) was −100 % control and the “Growth inhibition (% control) GIPRCNT” value (PC-3) was 11.83 % control. The “Growth inhibition (% control) GIPRCNT” value (DU-145) was −67.5681 % control, the “Growth inhibition (% control) GIPRCNT” value (MCF7) was −58.1831 % control and the “Growth inhibition (% control) GIPRCNT” value (MDA-MB-231/ATCC) was −31.9795 % control. The “Growth inhibition (% control) GIPRCNT” value (HS 578T) was −16.4793 % control, the “Growth inhibition (% control) GIPRCNT” value (BT-549) was 80.52 % control and the “Growth inhibition (% control) GIPRCNT” value (T-47D) was −32.5382 % control. For the same molecule, the “Growth inhibition (% control) GIPRCNT” value (MDA-MB-468) was −73.911 % control.
